Data on 34 compounds can be found in patent US20230391792A1, “METHODS AND COMPOSITIONS FOR TARGETED PROTEIN DEGRADATION” (Ranok Therapeutics (Hangzhou) Co. Ltd., priority 2020, published 2023).

Assay [1] has as its target T1, HSP90α protein (N-terminal) (Homo sapiens, UniProt P07900).
T1 construct: purchased BPS Bioscience #50298
The experiment in a line: HSP90α-binding fluorescent polarization (FP) assay, competition with FITC-geldanamycin. The settings on record: probe FITC-geldanamycin 5 nM, 25° C. 120 min. As for the experimental part: (§1) Binding of test compounds to HSP90α protein was measured by fluorescent polarization (FP) using the HSP90α (N-terminal) Assay Kit (BPS Bioscience, #50298), following the manufacturer's instructions, except as noted. Fluorescently labeled HSP90-binding compounds, either the provided FITC-geldanamycin (5 nM final concentration) or RNK04010, a triazolone-based HSP90-binding small molecule labeled with BODIPY through a piperizine-phenyl linker (5 nM final concentration) were employed. A 2.5-fold serial dilution of each test compound ranging from 20 μM to 5.2 nM was assayed for binding to HSP90α. After the final step of adding HSP90α protein to each assay well, plates were mixed by brief shaking, incubated at 25° C. for 120 min for FITC-geldanamycin or 300 min for RNK04010, and fluorescence was measured using a PerkinElmer EnVision Plate Reader.
(§2) HSP90α-binding fluorescent polarization (FP) assays measuring competition with the fluorescently labeled HSP90 binders, FITC-geldanamycin or RNK04010 (BODIPY-labeled), were applied to assess the binding capabilities of CHAMP molecules to HSP90.

Assay [2] deals with T1, HSP90α protein (N-terminal). Kind of assay: HSP90α-binding fluorescent polarization (FP) assay, competition with BODIPY-labeled RNK04010. As to conditions: probe RNK04010 (BODIPY-labeled) 5 nM, 25° C. 300 min. The procedure: as §1, §2

As usually defined, the IC50 is the concentration that inhibits the measured activity by half.

As to `Cc1sc2c(c1C)C(c1ccc(Cl)cc1)=N[C@@H](CC(=O)N1CCC(CCN3CCN(c4ccc(-n5c(O)nnc5-c5cc(C(C)C)c(O)cc5O)cc4)CC3)CC1)c1nnc(C)n1-2` [Compound 28], the IC50 in assay [1] lay within 100 to 1000 nM.
For the compound `Cc1sc2c(c1C)C(c1ccc(Cl)cc1)=N[C@@H](CC(=O)NCCOc1ccc(CN(C)Cc3ccc(-n4c(O)nnc4-c4cc(C(C)C)c(O)cc4O)cc3)cc1)c1nnc(C)n1-2` [Compound 21], in assay [1], the IC50 fell in the range of 100 to 1000 nM.
Same read-out and setting: to `Cc1sc2c(c1C)C(c1ccc(Cl)cc1)=N[C@@H](CC(=O)NCC(=O)NCCOc1ccc(-n3c(O)nnc3-c3cc(C(C)C)c(O)cc3O)cc1)c1nnc(C)n1-2` [Compound 24] belongs 100 to 1000 nM.
On the same count and under the same terms, to `Cc1sc2c(c1C)C(c1ccc(Cl)cc1)=N[C@@H](CC(=O)NCCOCCN1CCC(Cc3ccc(-n4c(O)nnc4-c4cc(C(C)C)c(O)cc4O)cc3)CC1)c1nnc(C)n1-2` [Compound 9] belongs 100 to 1000 nM; to `CCc1cc(-c2nnc(O)n2-c2ccc(CN3CCN(CC4CCN(C(=O)C[C@@H]5N=C(c6ccc(Cl)cc6)c6c(sc(C)c6C)-n6c(C)nnc65)CC4)CC3)cc2)c(O)cc1O` [Compound 41], under 100 nM.
For `Cc1sc2c(c1C)C(c1ccc(Cl)cc1)=NC(CC(=O)N1CCC(CN3CCN(Cc4ccc(-n5c(O)nnc5-c5cc(C(C)C)c(O)cc5O)cc4)CC3)CC1)c1nnc(C)n1-2` (stereo not drawn) [Compound 1], the IC50 in assay [2] and in assay [1] was 100 to 1000 nM each time.
For the compound `CCn1c(=O)/c(=C2\Sc3ccccc3N2C)s/c1=C\c1cccc[n+]1CCCCCCNC(=O)C[C@@H]1N=C(c2ccc(Cl)cc2)c2c(sc(C)c2C)-n2c(C)nnc21` [Compound 163], in assay [1], the IC50 is over 1000 nM.
In the case of `CC[C@@H](C)Nc1cc(C(=O)NC2CC3CCC(C2)N3c2ccc(C(=O)c3ccc(CN4CCN(CC5CCN(C(=O)C[C@@H]6N=C(c7ccc(Cl)cc7)c7c(sc(C)c7C)-n7c(C)nnc76)CC5)CC4)cc3)cn2)c(C)cc1C(N)=O` (stereo partly drawn) [Compound 165], the IC50 in assay [2] and in assay [1] was over 1000 nM each time.
For `CCOc1cc(N2CCC(C(=O)NCOCCN3CCC(Cc4ccc(-n5c(O)nnc5-c5cc(C(C)C)c(O)cc5O)cc4)CC3)CC2)ccc1Nc1ncc2c(n1)N(C)c1ccccc1C(=O)N2C` [Compound 111], the IC50 in assay [1] lay in the range of 100 to 1000 nM.
Still for that read-out and setting: to `CCOc1cc(N2CCC(C(=O)NCCOCCOCCOc3ccc(Nc4cc(-n5nc(C(F)(F)F)c6c5CC(C)(C)CC6=O)ccc4C(N)=O)cc3)CC2)ccc1Nc1ncc2c(n1)N(C)c1ccccc1C(=O)N2C` [Compound 161] belongs over 1000 nM.
On the same count and under the same terms, with `Cc1sc2c(c1C)C(c1ccc(Cl)cc1)=N[C@@H](CC(=O)N[C@@H](C)c1ccc(CN3CCN(Cc4ccc(-n5c(O)nnc5-c5cc(C(C)C)c(O)cc5O)cc4)CC3)cc1)c1nnc(C)n1-2` [Compound 38] the figure was 100 to 1000 nM.
`Cc1sc2c(c1C)C(c1ccc(Cl)cc1)=N[C@@H](CC(=O)NCCOc1ccccc1CN(C)Cc1ccc(-n3c(O)nnc3-c3cc(C(C)C)c(O)cc3O)cc1)c1nnc(C)n1-2` [Compound 14]: the IC50 in assay [1] lay in the range of 100 to 1000 nM.
Regarding `CCCc1cc(-c2nnc(C(=O)NCCN3CCCCC3)n2-c2ccc(CN3CCN(CC4CCN(C(=O)C[C@@H]5N=C(c6ccc(Cl)cc6)c6c(sc(C)c6C)-n6c(C)nnc65)CC4)CC3)cc2)c(O)cc1O` [Compound 92], the IC50 in assay [2] is under 100 nM.
Turning to `CCc1cc(-c2nnc(O)n2-c2ccc(CN3CCC(C(=O)N4CCC(Nc5ncc(NC(=O)c6cc(C(=O)c7c(Cl)ccc(Cl)c7F)c[nH]6)cn5)CC4)CC3)cc2)c(O)cc1O` [Compound 116], the IC50 in assay [1] lay within 100 to 1000 nM.
Consider `Cc1cc(C(=O)N2Cc3ccc(CN4CCN(C(=O)C[C@@H]5N=C(c6ccc(Cl)cc6)c6c(sc(C)c6C)-n6c(C)nnc65)CC4)c(F)c3C2)c(O)cc1O` [Compound 99], for which, in assay [2], the IC50 was over 1000 nM.
For the compound `Cc1sc2c(c1C)C(c1ccc(Cl)cc1)=N[C@@H](CCNCc1ccc(-n3c(O)nnc3-c3cc(C(C)C)c(O)cc3O)cc1)c1nnc(C)n1-2` [Compound 31], the concentration for half-maximal inhibition (IC50) in assay [1] is 100 to 1000 nM.
In the case of `CCOc1cc(N2CCC(C(=O)N3CCN(CCOc4ccc(Nc5cc(-n6nc(C(F)(F)F)c7c6CC(C)(C)CC7=O)ccc5C(N)=O)cc4)CC3)CC2)ccc1Nc1ncc2c(n1)N(C)c1ccccc1C(=O)N2C` [Compound 149], the IC50 in assay [2] fell in the range of 100 to 1000 nM.
In assay [2], `Cc1sc2c(c1C)C(c1ccc(Cl)cc1)=N[C@@H](CC(=O)N1CCC(CN3CCN(Cc4ccc(-n5c(C(=O)NCCN6CCCCC6)nnc5-c5cc(C(C)C)c(O)cc5O)cc4)CC3)CC1)c1nnc(C)n1-2` [Compound 76] displayed a half-maximal inhibitory concentration (IC50) of under 100 nM.
`Cc1sc2c(c1C)C(c1ccc(Cl)cc1)=N[C@@H](CC(=O)N(C)[C@@H](C)c1ccc(CN3CCC(Cc4ccc(-n5c(O)nnc5-c5cc(C(C)C)c(O)cc5O)cc4)CC3)cc1)c1nnc(C)n1-2` [Compound 63] yielded an IC50 in assay [2] of 100 to 1000 nM.
For `CCc1cc(-c2nnc(C(=O)NC(C)C(F)(F)F)n2-c2ccc(CN3CCN(CC4CCN(C(=O)C[C@@H]5N=C(c6ccc(Cl)cc6)c6c(sc(C)c6C)-n6c(C)nnc65)CC4)CC3)cc2)c(O)cc1O` (stereo partly drawn) [Compound 105], in assay [2], the IC50 lay within 100 to 1000 nM.
`COc1cccc(-c2cc(C(=O)Nc3ccc(-c4ccc(OC5CCN(C(=O)C[C@@H]6N=C(c7ccc(Cl)cc7)c7c(sc(C)c7C)-n7c(C)nnc76)CC5)cc4O)cc3)ccc2OC)c1` [Compound 131]: the concentration for half-maximal inhibition (IC50) in assay [2] was over 1000 nM.
Still for that read-out and setting: to `COc1cc(O)c(C(C)C)cc1-c1nnc(O)n1-c1ccc(CN2CCN(CC3CCN(C(=O)C[C@@H]4N=C(c5ccc(Cl)cc5)c5c(sc(C)c5C)-n5c(C)nnc54)CC3)CC2)cc1` [Compound 108] belongs over 1000 nM.
`CCOc1cc(N2CCC(C(=O)NCc3ccc(-n4c(O)nnc4-c4ccc(O)cc4O)cc3)CC2)ccc1Nc1ncc2c(n1)N(C)c1ccccc1C(=O)N2C` [Compound 119]: in assay [2], the IC50 was over 1000 nM.
Turning to `Cc1sc2c(c1C)C(c1ccc(Cl)cc1)=N[C@@H](CC(=O)NCCOCCNC(=O)O[C@H]1CC[C@H](Nc3cc(-n4nc(C(F)(F)F)c5c4CC(C)(C)CC5=O)ccc3C#N)CC1)c1nnc(C)n1-2` [Compound 154], in assay [2], the IC50 is over 1000 nM.
With `CCc1cc(-c2nnc(O)n2-c2ccc(CN3CCN(CC4CCN(C(=O)C[C@@H]5N=C(c6ccc(Cl)cc6)c6c(sc(C)c6C)-n6c(C)nnc65)CC4)CC3)c(F)c2)c(O)cc1O` [Compound 53], the IC50 in assay [1] fell in the range of 100 to 1000 nM.
The compound `Cc1sc2c(c1C)C(c1ccc(Cl)cc1)=N[C@@H](CC(=O)N1CCC(CN3CCN(Cc4ccc(-n5c(C(N)=O)nnc5-c5cc(C(C)C)c(O)cc5O)cc4)CC3)CC1)c1nnc(C)n1-2` [Compound 78] showed an IC50 in assay [2] of under 100 nM.
As for `COc1cccc(-c2cc(C(=O)Nc3ccc(-c4ccc(OC5CCN(C(=O)C[C@@H]6N=C(c7ccc(Cl)cc7)c7c(sc(C)c7C)-n7c(C)nnc76)CC5)cc4OCCN(C)C)cc3)ccc2OC)c1` [Compound 84], the IC50 in assay [2] was over 1000 nM.
As to `Cc1sc2c(c1C)C(c1ccc(Cl)cc1)=N[C@@H](CC(=O)N[C@@H](C)c1ccc(CN3CCC(Cc4ccc(-n5c(O)nnc5-c5cc(C(C)C)c(O)cc5O)cc4)CC3)cc1)c1nnc(C)n1-2` [Compound 44], the IC50 in assay [1] fell in the range of 100 to 1000 nM.
In turn, `CCc1cc(-c2nnc(C(=O)NC(C)C)n2-c2ccc(CN3CCN(CC4CCN(C(=O)C[C@@H]5N=C(c6ccc(Cl)cc6)c6c(sc(C)c6C)-n6c(C)nnc65)CC4)CC3)cc2)c(O)cc1O` [Compound 102] registered an IC50 in assay [2] of under 100 nM.
In turn, `CCOc1cc(N2CCC(C(=O)NCc3ccc(CN4CCC(Cc5ccc(-n6c(C(=O)NC(C)C)nnc6-c6cc(C(C)C)c(O)cc6O)cc5)CC4)cc3)CC2)ccc1Nc1ncc2c(n1)N(C)c1ccccc1C(=O)N2C` [Compound 130] displayed an IC50 in assay [2] of 100 to 1000 nM.
In assay [1], `CC[C@@H](C)Nc1cc(C(=O)NC2CC3CCC(C2)N3c2ccc(C(=O)Nc3ccc(CN4CCN(CC5CCN(C(=O)C[C@@H]6N=C(c7ccc(Cl)cc7)c7c(sc(C)c7C)-n7c(C)nnc76)CC5)CC4)cc3)cn2)ccc1C(N)=O` (stereo partly drawn) [Compound 166] yielded a half-maximal inhibitory concentration (IC50) of over 1000 nM.
`Cc1sc2c(c1C)C(c1ccc(Cl)cc1)=N[C@@H](CC(=O)N1CCC(CCN3CCC(Cc4ccc(-n5c(O)nnc5-c5cc(C(C)C)c(O)cc5O)cc4)CC3)CC1)c1nnc(C)n1-2` [Compound 55] had an IC50 in assay [2] of under 100 nM.
`Cc1cc(-c2nnc(O)n2-c2ccc(CN3CCN(CC4CCN(C(=O)C[C@@H]5N=C(c6ccc(Cl)cc6)c6c(sc(C)c6C)-n6c(C)nnc65)CC4)CC3)c(F)c2)c(O)cc1O` [Compound 54] showed an IC50 in assay [1] of 100 to 1000 nM.
With `CCOc1cc(N2CCC(C(=O)NCCOCCOc3ccc(-n4c(O)nnc4-c4cc(CC)c(O)cc4O)cc3)CC2)ccc1Nc1ncc2c(n1)N(C)c1ccccc1C(=O)N2C` [Compound 112], the IC50 in assay [1] was 100 to 1000 nM.
